Results from the supplement of paper PMC10307832.

Key:
Assay in all cases: relative viability (nuclei count vs DMSO), 5 days (fraction); higher = more cells survive
BEN = tested on: BEN
Method in brief: (§1)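 One day after seeding in 1536-well plates, lung cancer cell lines were dosed by pin tool. Dosing was either single-drug or a fixed anchor-drug dose plus five library-drug doses (not always all listed) in √10 steps. After 5 days, nuclei were stained in one fix-and-stain step and counted on 4× images, and relative viability is the nuclei count of treated wells over that of vehicle wells, given as the median of duplicate plates.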

NCI-H838 = tested on: NCI-H838
Method in brief: as §1

SK-LU-1 = tested on: SK-LU-1
Method in brief: as §1

LOU-NH91 = tested on: LOU-NH91
Method in brief: as §1

NCI-H1437 = tested on: NCI-H1437
Method in brief: as §1

NCI-H1651 = tested on: NCI-H1651
Method in brief: as §1

NCI-H1975 = tested on: NCI-H1975
Method in brief: as §1

NCI-H1734 = tested on: NCI-H1734
Method in brief: as §1

NCI-H1563 = tested on: NCI-H1563
Method in brief: as §1

HCC-366 = tested on: HCC-366
Method in brief: as §1

COR-L23 = tested on: COR-L23
Method in brief: as §1

NCI-H2023 = tested on: NCI-H2023
Method in brief: as §1

NCI-H441 = tested on: NCI-H441
Method in brief: as §1

NCI-H1650 = tested on: NCI-H1650
Method in brief: as §1

NCI-H1355 = tested on: NCI-H1355
Method in brief: as §1

NCI-H460 = tested on: NCI-H460
Method in brief: as §1

LU99A = tested on: LU99A
Method in brief: as §1

NCI-H2085 = tested on: NCI-H2085
Method in brief: as §1

CAL-12T = tested on: CAL-12T
Method in brief: as §1

## O=c1cc(-c2cccc3c2Sc2ccccc2S3)oc(N2CCOCC2)c1 + CC(C)C[C@H](NC(=O)[C@H](Cc1ccccc1)NC(=O)c1cnccn1)B(O)O [Bortezomib] (partner 0.002 µM)
BEN; first compound 0.08 µM
  relative viability: 0.802
BEN; first compound 0.253 µM
  relative viability: 0.858
BEN; first compound 0.8 µM
  relative viability: 0.991
BEN; first compound 2.53 µM
  relative viability: 0.889
BEN; first compound 8 µM
  relative viability: 1.23
NCI-H838; first compound 0.08 µM
  relative viability: 0.703
NCI-H838; first compound 0.253 µM
  relative viability: 1.05
NCI-H838; first compound 0.8 µM
  relative viability: 0.728
NCI-H838; first compound 2.53 µM
  relative viability: 0.693
NCI-H838; first compound 8 µM
  relative viability: 0.588
SK-LU-1; first compound 0.08 µM
  relative viability: 1.12
SK-LU-1; first compound 0.253 µM
  relative viability: 1.18
SK-LU-1; first compound 0.8 µM
  relative viability: 1.16
SK-LU-1; first compound 2.53 µM
  relative viability: 1.2
SK-LU-1; first compound 8 µM
  relative viability: 1.91
LOU-NH91; first compound 0.08 µM
  relative viability: 0.481
LOU-NH91; first compound 0.253 µM
  relative viability: 0.514
LOU-NH91; first compound 0.8 µM
  relative viability: 0.546
LOU-NH91; first compound 2.53 µM
  relative viability: 0.489
LOU-NH91; first compound 8 µM
  relative viability: 0.502
NCI-H1437; first compound 0.08 µM
  relative viability: 0.51
NCI-H1437; first compound 0.253 µM
  relative viability: 0.626
NCI-H1437; first compound 0.8 µM
  relative viability: 0.473
NCI-H1437; first compound 2.53 µM
  relative viability: 0.555
NCI-H1437; first compound 8 µM
  relative viability: 0.543
NCI-H1651; first compound 0.08 µM
  relative viability: 0.925
NCI-H1651; first compound 0.253 µM
  relative viability: 1.08
NCI-H1651; first compound 0.8 µM
  relative viability: 0.935
NCI-H1651; first compound 2.53 µM
  relative viability: 0.906
NCI-H1651; first compound 8 µM
  relative viability: 0.964
NCI-H1975; first compound 0.08 µM
  relative viability: 0.425
NCI-H1975; first compound 0.253 µM
  relative viability: 0.419
NCI-H1975; first compound 0.8 µM
  relative viability: 0.319
NCI-H1975; first compound 2.53 µM
  relative viability: 0.367
NCI-H1975; first compound 8 µM
  relative viability: 0.384
NCI-H1734; first compound 0.08 µM
  relative viability: 0.865
NCI-H1734; first compound 0.253 µM
  relative viability: 1.06
NCI-H1734; first compound 0.8 µM
  relative viability: 1.05
NCI-H1734; first compound 2.53 µM
  relative viability: 0.844
NCI-H1734; first compound 8 µM
  relative viability: 1.18
NCI-H1563; first compound 0.08 µM
  relative viability: 0.773
NCI-H1563; first compound 0.253 µM
  relative viability: 0.857
NCI-H1563; first compound 0.8 µM
  relative viability: 0.767
NCI-H1563; first compound 2.53 µM
  relative viability: 0.92
NCI-H1563; first compound 8 µM
  relative viability: 0.83
HCC-366; first compound 0.08 µM
  relative viability: 1.09
HCC-366; first compound 0.253 µM
  relative viability: 1.65
HCC-366; first compound 0.8 µM
  relative viability: 1.12
HCC-366; first compound 2.53 µM
  relative viability: 1.03
HCC-366; first compound 8 µM
  relative viability: 1.28
COR-L23; first compound 0.08 µM
  relative viability: 1.13
COR-L23; first compound 0.253 µM
  relative viability: 1.49
COR-L23; first compound 0.8 µM
  relative viability: 1.2
COR-L23; first compound 2.53 µM
  relative viability: 1
COR-L23; first compound 8 µM
  relative viability: 1.48
NCI-H2023; first compound 0.08 µM
  relative viability: 1
NCI-H2023; first compound 0.253 µM
  relative viability: 1.1
NCI-H2023; first compound 0.8 µM
  relative viability: 0.988
NCI-H2023; first compound 2.53 µM
  relative viability: 0.528
NCI-H2023; first compound 8 µM
  relative viability: 0.937
NCI-H441; first compound 0.08 µM
  relative viability: 0.488
NCI-H441; first compound 0.253 µM
  relative viability: 1.25
NCI-H441; first compound 0.8 µM
  relative viability: 0.98
NCI-H441; first compound 2.53 µM
  relative viability: 0.45
NCI-H441; first compound 8 µM
  relative viability: 0.594
NCI-H1650; first compound 0.08 µM
  relative viability: 0.212
NCI-H1650; first compound 0.253 µM
  relative viability: 0.168
NCI-H1650; first compound 0.8 µM
  relative viability: 0.189
NCI-H1650; first compound 2.53 µM
  relative viability: 0.16
NCI-H1650; first compound 8 µM
  relative viability: 0.184
NCI-H1355; first compound 0.08 µM
  relative viability: 1.25
NCI-H1355; first compound 0.253 µM
  relative viability: 1.35
NCI-H1355; first compound 0.8 µM
  relative viability: 1.22
NCI-H1355; first compound 2.53 µM
  relative viability: 1.16
NCI-H1355; first compound 8 µM
  relative viability: 1.3
NCI-H460; first compound 0.08 µM
  relative viability: 1.36
NCI-H460; first compound 0.8 µM
  relative viability: 1.12
NCI-H460; first compound 2.53 µM
  relative viability: 1.02
NCI-H460; first compound 8 µM
  relative viability: 1.87
LU99A; first compound 0.08 µM
  relative viability: 1.18
LU99A; first compound 0.253 µM
  relative viability: 1.07
LU99A; first compound 0.8 µM
  relative viability: 1.5
LU99A; first compound 2.53 µM
  relative viability: 1.03
LU99A; first compound 8 µM
  relative viability: 1.3
NCI-H2085; first compound 0.08 µM
  relative viability: 1.01
NCI-H2085; first compound 0.253 µM
  relative viability: 1.11
NCI-H2085; first compound 0.8 µM
  relative viability: 1.14
NCI-H2085; first compound 2.53 µM
  relative viability: 0.94
NCI-H2085; first compound 8 µM
  relative viability: 1.09
CAL-12T; first compound 0.08 µM
  relative viability: 0.716
CAL-12T; first compound 0.253 µM
  relative viability: 0.945
CAL-12T; first compound 0.8 µM
  relative viability: 1.02
CAL-12T; first compound 2.53 µM
  relative viability: 0.98
CAL-12T; first compound 8 µM
  relative viability: 1.05
